ChEMBL document CHEMBL4118166, “Design, synthesis and evaluation of potent and selective inhibitors of mono-(ADP-ribosyl)transferases PARP10 and PARP14” (Bioorg Med Chem Lett, 2018)
≈ marks a conversion by molar mass, not a printed value.

Legend:
[1] = target: T1, Protein mono-ADP-ribosyltransferase PARP10 (Homo sapiens, UniProt Q53GL7); assay: Inhibition of full length recombinant His6-tagged human PARP10 expressed in Escherichia coli BL21(DE3) preincubated for 15 mins followed by biotinylated NAD+ addition by chemiluminescence assay
T1 sequence (Q53GL7 whole entry): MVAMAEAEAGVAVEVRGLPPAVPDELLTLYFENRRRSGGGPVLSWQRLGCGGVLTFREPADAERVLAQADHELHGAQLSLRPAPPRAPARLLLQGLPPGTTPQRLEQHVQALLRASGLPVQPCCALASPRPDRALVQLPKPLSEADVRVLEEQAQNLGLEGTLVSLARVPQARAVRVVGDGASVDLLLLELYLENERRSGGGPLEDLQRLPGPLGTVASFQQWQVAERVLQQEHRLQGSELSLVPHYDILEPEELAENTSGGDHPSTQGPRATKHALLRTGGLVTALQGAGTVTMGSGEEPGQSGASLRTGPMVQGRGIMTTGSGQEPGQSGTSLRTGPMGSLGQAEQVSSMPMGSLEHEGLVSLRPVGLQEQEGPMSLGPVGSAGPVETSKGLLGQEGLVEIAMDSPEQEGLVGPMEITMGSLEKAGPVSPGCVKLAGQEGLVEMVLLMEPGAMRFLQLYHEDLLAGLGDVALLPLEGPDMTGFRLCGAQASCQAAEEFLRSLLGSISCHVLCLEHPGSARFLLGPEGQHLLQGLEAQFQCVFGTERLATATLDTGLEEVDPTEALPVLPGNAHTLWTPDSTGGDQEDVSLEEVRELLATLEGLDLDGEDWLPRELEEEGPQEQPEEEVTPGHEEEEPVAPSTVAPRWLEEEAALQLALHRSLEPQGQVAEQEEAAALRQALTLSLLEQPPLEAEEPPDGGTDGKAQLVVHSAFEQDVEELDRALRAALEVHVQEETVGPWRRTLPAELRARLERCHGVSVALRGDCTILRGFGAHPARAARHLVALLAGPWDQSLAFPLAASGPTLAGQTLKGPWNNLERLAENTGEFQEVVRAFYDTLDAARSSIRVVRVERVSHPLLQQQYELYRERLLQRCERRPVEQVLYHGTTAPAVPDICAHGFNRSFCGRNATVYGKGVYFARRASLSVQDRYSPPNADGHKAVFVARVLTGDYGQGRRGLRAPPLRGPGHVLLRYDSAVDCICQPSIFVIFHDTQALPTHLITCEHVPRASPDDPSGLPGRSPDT

[2] = Thermodynamic solubility of the compound in phosphate buffer at pH 7.4 after 24 hrs by HPLC/UV based shake flask method; format: physicochemical; conditions: read-out: Therm_solubility
[3] = Metabolic stability in mouse liver microsomes compound remaining level at 5 uM in absence of co-factors after 2 hrs by LC-MS/MS analysis; format: ADME, microsome; conditions: read-out: Stability
[4] = Metabolic stability in mouse liver microsomes assessed as compound remaining level at 5 uM after 2 hrs in presence of G-6-P, G-6-PDH, MgCl2 and NADP+ by LC-MS/MS analysis; format: ADME, microsome; conditions: read-out: Stability
[5] = target: Protein mono-ADP-ribosyltransferase PARP14 (Homo sapiens) (UniProt Q460N5); assay: Inhibition of full length recombinant His6-tagged human PARP14 WWA/catalytic domain expressed in Escherichia coli BL21(DE3) at 5 uM preincubated for 15 mins followed by biotinylated NAD+ addition by chemiluminescence assay relative to control
[6] = target: T2, Protein mono-ADP-ribosyltransferase PARP15 (Homo sapiens, UniProt Q460N3); assay: Inhibition of full length recombinant His6-tagged PARP15 catalytic domain (unknown origin) expressed in Escherichia coli BL21(DE3) by fluorescence based assay
T2 sequence (Q460N3 whole entry): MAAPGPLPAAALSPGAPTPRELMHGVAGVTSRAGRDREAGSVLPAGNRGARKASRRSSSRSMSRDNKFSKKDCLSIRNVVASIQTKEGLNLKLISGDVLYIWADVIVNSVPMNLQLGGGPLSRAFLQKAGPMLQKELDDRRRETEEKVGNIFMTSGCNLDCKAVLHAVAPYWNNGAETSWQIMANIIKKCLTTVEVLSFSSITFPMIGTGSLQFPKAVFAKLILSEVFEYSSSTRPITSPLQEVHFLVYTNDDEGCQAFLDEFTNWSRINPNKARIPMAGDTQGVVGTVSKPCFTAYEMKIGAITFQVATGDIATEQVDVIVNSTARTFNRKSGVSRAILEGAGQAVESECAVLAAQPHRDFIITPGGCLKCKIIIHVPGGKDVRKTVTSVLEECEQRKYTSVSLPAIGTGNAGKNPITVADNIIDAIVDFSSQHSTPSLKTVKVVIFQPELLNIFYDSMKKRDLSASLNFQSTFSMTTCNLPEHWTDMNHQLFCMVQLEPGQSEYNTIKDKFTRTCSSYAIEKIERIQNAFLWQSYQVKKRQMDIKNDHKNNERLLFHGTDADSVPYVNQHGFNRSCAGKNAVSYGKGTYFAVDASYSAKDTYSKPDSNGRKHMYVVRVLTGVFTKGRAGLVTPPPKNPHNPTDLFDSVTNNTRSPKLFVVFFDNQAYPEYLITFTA

Sequence of Protein mono-ADP-ribosyltransferase PARP14 (Homo sapiens) (Q460N5 whole entry, the tested form may be a part): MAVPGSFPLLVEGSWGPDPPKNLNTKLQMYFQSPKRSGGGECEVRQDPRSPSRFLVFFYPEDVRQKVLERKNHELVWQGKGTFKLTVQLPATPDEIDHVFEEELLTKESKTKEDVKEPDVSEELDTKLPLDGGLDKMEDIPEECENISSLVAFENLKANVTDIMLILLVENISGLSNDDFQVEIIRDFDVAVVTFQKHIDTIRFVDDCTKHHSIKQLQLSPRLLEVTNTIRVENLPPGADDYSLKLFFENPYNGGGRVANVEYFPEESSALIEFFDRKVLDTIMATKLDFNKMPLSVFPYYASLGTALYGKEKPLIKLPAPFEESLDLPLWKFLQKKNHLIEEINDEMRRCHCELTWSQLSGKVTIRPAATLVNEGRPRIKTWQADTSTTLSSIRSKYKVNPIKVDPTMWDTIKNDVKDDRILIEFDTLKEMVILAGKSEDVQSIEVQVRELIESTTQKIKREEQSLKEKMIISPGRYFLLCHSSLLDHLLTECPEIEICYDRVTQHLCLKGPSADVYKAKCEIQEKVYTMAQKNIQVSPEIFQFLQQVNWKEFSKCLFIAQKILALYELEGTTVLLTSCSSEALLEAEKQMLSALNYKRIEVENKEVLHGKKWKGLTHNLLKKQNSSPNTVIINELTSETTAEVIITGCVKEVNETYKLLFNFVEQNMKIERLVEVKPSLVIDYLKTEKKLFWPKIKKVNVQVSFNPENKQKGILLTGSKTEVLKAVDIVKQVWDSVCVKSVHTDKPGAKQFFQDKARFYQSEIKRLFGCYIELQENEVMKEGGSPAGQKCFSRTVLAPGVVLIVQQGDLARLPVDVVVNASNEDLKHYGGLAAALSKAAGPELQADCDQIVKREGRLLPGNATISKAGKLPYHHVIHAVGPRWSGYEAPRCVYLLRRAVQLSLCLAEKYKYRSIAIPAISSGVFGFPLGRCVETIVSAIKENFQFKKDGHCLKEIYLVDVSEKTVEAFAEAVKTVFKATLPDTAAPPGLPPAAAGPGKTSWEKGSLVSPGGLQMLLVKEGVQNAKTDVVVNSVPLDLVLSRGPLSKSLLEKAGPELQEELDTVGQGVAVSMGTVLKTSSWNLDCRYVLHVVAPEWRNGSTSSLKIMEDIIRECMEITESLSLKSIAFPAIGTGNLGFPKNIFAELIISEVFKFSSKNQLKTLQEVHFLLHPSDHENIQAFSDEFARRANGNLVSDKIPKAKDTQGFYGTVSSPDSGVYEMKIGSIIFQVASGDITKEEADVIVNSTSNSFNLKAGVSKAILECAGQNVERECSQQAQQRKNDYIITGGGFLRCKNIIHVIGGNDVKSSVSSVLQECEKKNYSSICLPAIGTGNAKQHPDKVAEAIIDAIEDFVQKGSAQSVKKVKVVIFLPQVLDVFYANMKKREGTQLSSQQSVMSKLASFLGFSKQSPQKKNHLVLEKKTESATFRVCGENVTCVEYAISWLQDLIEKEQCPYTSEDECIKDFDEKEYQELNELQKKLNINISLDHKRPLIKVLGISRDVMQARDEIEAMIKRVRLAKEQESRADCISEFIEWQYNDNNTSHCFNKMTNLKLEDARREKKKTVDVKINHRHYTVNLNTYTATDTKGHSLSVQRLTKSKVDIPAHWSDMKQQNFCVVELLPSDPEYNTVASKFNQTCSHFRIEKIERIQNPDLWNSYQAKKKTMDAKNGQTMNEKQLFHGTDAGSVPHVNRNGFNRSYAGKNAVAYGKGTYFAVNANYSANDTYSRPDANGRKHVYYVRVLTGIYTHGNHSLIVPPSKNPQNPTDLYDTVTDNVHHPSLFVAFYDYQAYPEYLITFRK

SMILES | IC50 [1] [µM] | solubility thermodynamic at 24 h [2] [µM] | remaining at 2 h, 5 µM [3] [%] | remaining at 2 h, 5 µM [4] [%] | also measured
NC(=O)c1ccc(Oc2cccc(C(N)=O)c2)cc1 | 0.51 | – | – | – | –
NC(=O)c1ccc(Oc2cccc(C(=O)N3CCC(O)(c4ccccc4)CC3)c2)cc1 | 1.5 | – | – | – | –
NC(=O)c1ccc(Oc2cccc(C(=O)N3CCC(c4ccc(F)cc4)CC3)c2)cc1 | – | 42 (≈ 17.6 µg/mL) | 91.8 | 16.4 | –
CCOC(=O)C1CCN(C(=O)c2cccc(Oc3ccc(C(N)=O)cc3)c2)CC1 | 1.06 | – | – | – | inhibition [5]: 51%
NC(=O)c1ccc(Oc2ccc(C(N)=O)cc2)cc1 | – | – | – | – | IC50 [6]: 4.17 µM
NC(=O)c1ccc(Oc2cccc(C(=O)N3CCC(O)(c4ccc(F)cc4)CC3)c2)cc1 | – | 242 (≈ 105 µg/mL) | 100 | 45.3 | –
NC(=O)c1ccc(Oc2cccc(C(=O)N3CCC(c4ccccc4F)CC3)c2)cc1 | 0.47 | – | – | – | –
NC(=O)c1ccc(Oc2ccc(C(=O)N3CCC(c4ccc(F)cc4)CC3)cc2)cc1 | 1.65 | – | – | – | –
NC(=O)c1ccc(Oc2ccc(C(=O)N3CCC(c4cccc(F)c4)CC3)cc2)cc1 | 1.22 | – | – | – | –
NC(=O)c1ccc(Oc2cccc(C(=O)N3CCN(c4ccc(F)cc4)CC3)c2)cc1 | – | 60 (≈ 25.2 µg/mL) | 88.1 | 39 | –
